Reference: patent US20070218504A1, “HUMAN LEPTIN-DERIVED POLYPEPTIDES AND USES THEREOF” (UNIVERSITY OF PITTSBURGH, priority 2006, published 2007)

Experiments:
[1] = tested on: leptin signaling in primary hypothalamic neurons; experiment: Phospho-STAT3 and PI3-kinase assays of leptin signaling in primary hypothalamic neurons; format: cell-based, rat
Procedure: To determine if the interaction between CRP and leptin dampens the cellular actions of leptin, the ability of leptin to stimulate tyrosine phosphorylation of STAT3 and PI3-kinase activity was assessed in the presence of CRP in vitro. HEK293 cells over-expressing OB-Rb were serum starved for 2 hours before addition of leptin and CRP (CHEMICON or EMD Biosciences). Leptin, in the presence or absence of CRP, was pre-incubated in μ-MEM (with additional 1 mM Ca^2+) for 30 minutes at 37° C. before being applied to the cells. After a 30-minute incubation with leptin, the cells were harvested in lysis buffer (18). The resultant protein extract was subjected to a Western blot analysis using an anti-phospho-STAT3 specific antibody (Cell Signaling, Beverly, Mass.). For studies involving primary hypothalamic neurons, the hypothalamus from rats was surgically isolated immediately after euthanasia, and placed in the DMEM for incubation with leptin in the presence or absence of CRP.

[2] = tested on: IL-6 induced activation of STAT3; experiment: IL-6 induced activation of STAT3 in human primary hepatocytes; format: cell-based; details: even higher CRP concentration
From the text: Human hepatocytes were isolated from donor livers. Briefly, the livers were perfused in a three-step process. A calcium-free buffer supplemented with EGTA is used to break […] junctions, which is followed by the same perfusion buffer without EGTA. Finally, a calcium-containing buffer supplemented with digestive enzymes (collagenase and DNase) was used. Following digestion, parenchymal hepatocytes were isolated by three steps of low-speed centrifugation. Cells with a viability of at least 85% were plated and cultured in hepatocytes maintenance medium (HMM) (Cambrex BioScience, Walkersville, Md.) supplemented with 10% fetal bovine serum (FBS), 0.1 μM dexamethasone, 0.1 μM insulin, and 50 μg/ml gentamicin on collagen-coated tissue culture dishes for 2-4 hours. The cells were subsequently cultured in the above medium without FBS.
Approximately 24 hours after seeded, the hepatocytes were washed with serum-free HMM supplemented with 0.1 μM dexamethasone and 0.1 μM insulin, and then cultured in the same medium for another 48 hours. Subsequently, the cells were switched to serum-free HMM supplemented with 0.1 μM dexamethasone before stimulated with leptin (NHPP) or rhIL-6 (R&D Systems, Minneapolis, Minn.) for 24 hours or 48 hours. For experiments involving PI3-kinase inhibitors, hepatocytes were pretreated with LY294002 (EMD Biosciences, Calif.) for 1 hour before hormonal stimulation.

[3] = tested on: ob/ob mice; experiment: Subcutaneous micro-osmotic pump infusion of human CRP and human leptin in ob/ob mice; format: in vivo, mouse; details: for effect of CRP alone on food intake and body weight: CRP without leptin
Procedure: Micro-osmotic pumps (#1007D, DURECT, Cupertino, Calif.) were subcutaneously implanted into ob/ob or wild-type mice according to the instructions of the manufacturer. The osmotic pumps were pre-filled with saline, CRP, leptin or leptin plus CRP. Food intake (24-hour), body weight, and body temperature were monitored daily post-surgery. Blood glucose concentrations were measured using tail-vein blood samples using a Precision Plus® glucose meter, product of Medisense (Abbot Park, Ill.).
Human- and mouse-leptin concentrations were measured using ELISA kits from CHEMICON (Temecular, Calif.) and R&D Systems (Minneapolis, Minn.), respectively, accordingly to the instructions of the manufacturers. Serum mouse insulin and human CRP were determined with ELISA kits from LINCO Research (St. Charles, Mo.) and HELICA (Fullerton, Calif.), respectively. Serum- and tissue-triglycerides were determined with the protocols described previously (19).
Various amounts of human CRP, either alone or with human leptin, were administered via micro-osmotic pumps implanted s.c. into 8-week old ob/ob mice.
The above in vivo data were harvested from mice experiencing infusions of a mixture of CRP and leptin stored in a single mini-osmotic pump. Human CRP and leptin were also infused in separate osmotic pumps. […] Also compared to infusion from a single pump, detectable effects of human CRP on leptin were realized later, likely due to the time required to achieve diffusion and binding equilibrium.

[4] = tested on: CRP-transgenic mice; experiment: Human leptin infusion in mice transgenically expressing human CRP and wild-type littermates; format: in vivo, mouse
Procedure: To complement the in vivo studies further, the satiety and weight-reducing functions of human leptin were evaluated in mice producing transgenically expressed human CRP (24). The average baseline serum concentration of human CRP in these mice was approximately 15 μg/ml. […] To evaluate the effects of human leptin in the transgenic mice, a dose of 0.6 mg/kg/day, which has been known to maximally but only temporarily affected energy balance in wild-type mice (25), was infused. […] At the end of infusion, the total human leptin concentration in the sera of transgenic mice averaged at 7.6 ng/ml, which was higher than that in the wild-type littermates at 3.2 ng/ml.

[5] = tested on: tyrosine phosphorylation of STAT3 in the hypothalamic tissues; experiment: Tyrosine phosphorylation of STAT3 in hypothalamic tissues after i.c.v. injection (Western blot); format: in vivo, mouse
Procedure: The hypothalamic tissues were surgically dissected right after sacrificing the mice. A portion of each tissue was extracted for protein in a protein lysis buffer. The activation of STAT3 was evaluated using Western blot assays with an antibody against phospho-tyrosine-STAT3 as described above (Cell Signaling, Beverly, Mass.). The membrane was striped and applied with an antibody against STAT3 to evaluate the overall level of STAT3 (Cell Signaling, Beverly, Mass.).
To determine whether the interaction between human CRP and leptin dampens the cellular actions of leptin, an assessment was made of the ability of leptin to stimulate tyrosine phosphorylation of STAT3 in the hypothalamic tissues. As described above, human CRP at 2.3 μg/injection or PBS was pre-injected via i.c.v., followed by an injection of human leptin or mouse leptin, each at 100 ng/injection. Subsequently, the hypothalamic tissues were dissected and immediately placed into liquid nitrogen for a rapid freezing. A portion of the frozen tissue was homogenized in a protein lysis buffer for the extraction of proteins. The protein extract was then subjected to Western blot assay as described above.

[6] = tested on: ob/ob mice; experiment: Intracerebralventricular (i.c.v.) injection of human CRP and leptin in ob/ob mice, food intake and body weight; format: in vivo, mouse; details: ob/ob mice

## human CRP: human C-reactive protein, purified preparation from a commercial source
[1]
  effect on leptin signaling (phospho-STAT3, PI3-kinase): specifically inhibited leptin signaling
[2]
  effect on IL-6 induced activation of STAT3: did not suppress
[3]; food intake, body weight, blood glucose, serum insulin, matched serum CRP
  effect of human CRP on physiological actions of human leptin, separate osmotic pumps: attenuate the physiological actions of human leptin
[3]; human CRP 10 μg/day with human leptin, single pump
  effect of co-infused human CRP on leptin-induced reduction of food intake and body weight, low dosage: only partially attenuated
[3]; human CRP 40 μg/day
  effect on increase of rectal temperature induced by leptin: completely blocked
[3]; human CRP 40 μg/day with human leptin, single pump
  effect of co-infused human CRP on leptin actions to restrain appetite and induce weight loss, high dosage: completely block
[3]; ob/ob mice
  activation of STAT3 in hypothalamic tissues on co-infusion of CRP with leptin: inhibited
  effect of CRP alone on food intake and body weight: did not affect food intake or body weight
[3]; ob/ob mice, listed as CRP
  effect of CRP alone on food intake and body weight: does not influence food intake and body weight
[3]; ob/ob mice, co-infusion with leptin
  effect of co-infused human CRP on leptin's alleviation of diabetes: reverted these effects
[4]; CRP transgenic mice, no human leptin
  effect of human CRP alone on food intake and body weight: did not meaningfully affect
[4]; mice transgenically expressing human CRP
  average baseline serum concentration of human CRP: approximately 15 μg/ml
[5]; human CRP 2.3 μg/injection
  effect of CRP pre-injection on human leptin-induced STAT3 activation: drastically diminished
  effect of CRP pre-injection on mouse leptin-induced STAT3 activation: did not block
[6]
  effect of i.c.v. human CRP on satiety and weight-reducing effects induced by mouse leptin: did not influence

## human leptin: human recombinant leptin
[3]; all groups infused with leptin (leptin only or leptin plus CRP), separate osmotic pumps
  total human leptin concentrations in the sera: 15 to 20 ng/mL
[3]; ob/ob mice
  effect of leptin on diabetes (blood glucose, plasma insulin, serum- and hepatic triglyceride): alleviated diabetes
[3]; ob/ob mice, 0.3 mg/kg/day s.c. infusion, 6 days
  effect of human leptin on food-intake and body weight: expected reduction in food-intake and body weight
[4]; 0.6 mg/kg/day infusion, CRP-transgenic mice
  physiological effects of human leptin in CRP-transgenic mice: completely blunted
[4]; 0.6 mg/kg/day infusion, wild-type littermates
  effect of human leptin on food intake, body weight, epidydimal fat-pad weight in wild-type littermates: expected reductions in food intake, body weight, and epidydimal fat-pad weight
[4]; end of infusion, CRP transgenic mice
  total human leptin concentration in sera, transgenic mice: 7.6 ng/mL
[4]; end of infusion, wild-type littermates
  total human leptin concentration in sera, wild-type littermates: 3.2 ng/mL
[5]; human leptin 100 ng/injection following PBS
  level of phosph-STAT3 in hypothalamic tissues after leptin: sharp increase
